Reference: PubChem BioAssay (NCI)
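Exposure lasted 48 hours, with cells grown in 96-well plates and compounds tested at five concentrations. Abbreviation: GI50, concentration required for 50% inhibition of growth. TGI denotes the concentration required for complete inhibition of growth.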

Columns and labels:
Experiment in all cases: inhibition of tumour cell growth, NCI panel, 48 h
786-0 renal = system: 786-0 renal
A498 renal = system: A498 renal
A549 NSCLC = system: A549 NSCLC
ACHN renal = system: ACHN renal
BT-549 breast = system: BT-549 breast
CAKI-1 renal = system: CAKI-1 renal
CCRF-CEM leukemia = system: CCRF-CEM leukemia
COLO 205 colon = system: COLO 205 colon
DU-145 prostate = system: DU-145 prostate
EKVX NSCLC = system: EKVX NSCLC
HCC-2998 colon = system: HCC-2998 colon
HCT-116 colon = system: HCT-116 colon
HCT-15 colon = system: HCT-15 colon
HL-60(TB) leukemia = system: HL-60(TB) leukemia
HOP-62 NSCLC = system: HOP-62 NSCLC
HOP-92 NSCLC = system: HOP-92 NSCLC
HS 578T breast = system: HS 578T breast
HT29 colon = system: HT29 colon
IGROV1 ovarian = system: IGROV1 ovarian
K-562 leukemia = system: K-562 leukemia
KM12 colon = system: KM12 colon
LOX IMVI melanoma = system: LOX IMVI melanoma
M14 melanoma = system: M14 melanoma
MALME-3M melanoma = system: MALME-3M melanoma
MCF7 breast = system: MCF7 breast
MDA-MB-231 breast = system: MDA-MB-231 breast
MDA-MB-435 = system: MDA-MB-435
MOLT-4 leukemia = system: MOLT-4 leukemia
NCI-H226 lung = system: NCI-H226 lung
NCI-H23 lung = system: NCI-H23 lung
NCI-H460 lung = system: NCI-H460 lung
NCI-H522 lung = system: NCI-H522 lung
NCI/ADR-RES ovarian = system: NCI/ADR-RES ovarian
OVCAR-3 ovarian = system: OVCAR-3 ovarian
OVCAR-4 ovarian = system: OVCAR-4 ovarian
OVCAR-5 ovarian = system: OVCAR-5 ovarian
OVCAR-8 ovarian = system: OVCAR-8 ovarian
PC-3 prostate = system: PC-3 prostate
RPMI-8226 leukemia = system: RPMI-8226 leukemia
RXF 393 renal = system: RXF 393 renal
SF-268 CNS = system: SF-268 CNS
SF-295 CNS = system: SF-295 CNS
SF-539 CNS = system: SF-539 CNS
SK-MEL-2 melanoma = system: SK-MEL-2 melanoma
SK-MEL-28 melanoma = system: SK-MEL-28 melanoma
SK-MEL-5 melanoma = system: SK-MEL-5 melanoma
SK-OV-3 ovarian = system: SK-OV-3 ovarian
SN12C renal = system: SN12C renal
SNB-19 CNS = system: SNB-19 CNS
SNB-75 CNS = system: SNB-75 CNS
SR leukemia = system: SR leukemia
SW-620 colon = system: SW-620 colon
T-47D breast = system: T-47D breast
TK-10 renal = system: TK-10 renal
U251 CNS = system: U251 CNS
UACC-257 melanoma = system: UACC-257 melanoma
UACC-62 melanoma = system: UACC-62 melanoma
UO-31 renal = system: UO-31 renal

CCO/C=N/C1=C(C#N)C(c2ccc(OC)cc2)c2sc3c(CC)cccc3c2O1 (stereo unspecified)
GI50 (786-0 renal): 3.06 µM
TGI (786-0 renal): 17.5 µM
GI50 (A498 renal): 0.472 µM
TGI (A498 renal): 7.6 µM
GI50 (A549 NSCLC): 2.59 µM
TGI (A549 NSCLC): 34.1 µM
GI50 (ACHN renal): 3.36 µM
TGI (ACHN renal): 17.2 µM
GI50 (BT-549 breast): 4.56 µM
TGI (BT-549 breast): 19.4 µM
GI50 (CAKI-1 renal): 1.9 µM
TGI (CAKI-1 renal): 19.3 µM
GI50 (CCRF-CEM leukemia): 1.23 µM
TGI (CCRF-CEM leukemia): 20.8 µM
GI50 (COLO 205 colon): 3.52 µM
TGI (COLO 205 colon): 12.9 µM
GI50 (DU-145 prostate): 3.55 µM
TGI (DU-145 prostate): 14.9 µM
GI50 (EKVX NSCLC): 3.47 µM
TGI (EKVX NSCLC): 17.3 µM
GI50 (HCC-2998 colon): 2.01 µM
TGI (HCC-2998 colon): 5.98 µM
GI50 (HCT-116 colon): 1.03 µM
TGI (HCT-116 colon): 11.7 µM
GI50 (HCT-15 colon): 0.92 µM
TGI (HCT-15 colon): 10.4 µM
GI50 (HL-60(TB) leukemia): 1.92 µM
TGI (HL-60(TB) leukemia): 14.5 µM
GI50 (HOP-62 NSCLC): 5.63 µM
TGI (HOP-62 NSCLC): 22.4 µM
GI50 (HOP-92 NSCLC): 1.67 µM
TGI (HOP-92 NSCLC): 16.7 µM
GI50 (HS 578T breast): 2.3 µM
TGI (HS 578T breast): 9.55 µM
GI50 (HT29 colon): 3.22 µM
TGI (HT29 colon): 11.6 µM
GI50 (IGROV1 ovarian): 1.53 µM
TGI (IGROV1 ovarian): 17.5 µM
GI50 (K-562 leukemia): 0.678 µM
TGI (K-562 leukemia): 30.8 µM
GI50 (KM12 colon): 2.63 µM
TGI (KM12 colon): 21.7 µM
GI50 (LOX IMVI melanoma): 2.31 µM
TGI (LOX IMVI melanoma): 14.5 µM
GI50 (M14 melanoma): 1.5 µM
TGI (M14 melanoma): 11.8 µM
GI50 (MALME-3M melanoma): 10.9 µM
TGI (MALME-3M melanoma): 25 µM
GI50 (MCF7 breast): 1.25 µM
TGI (MCF7 breast): 13 µM
GI50 (MDA-MB-231 breast): 4.05 µM
TGI (MDA-MB-231 breast): 24.1 µM
GI50 (MDA-MB-435): 0.373 µM
TGI (MDA-MB-435): 1.51 µM
GI50 (MOLT-4 leukemia): 3.28 µM
TGI (MOLT-4 leukemia): 26.2 µM
GI50 (NCI-H226 lung): 6.65 µM
TGI (NCI-H226 lung): 25.4 µM
GI50 (NCI-H23 lung): 3.09 µM
TGI (NCI-H23 lung): 16.4 µM
GI50 (NCI-H460 lung): 3.46 µM
TGI (NCI-H460 lung): 12.8 µM
GI50 (NCI-H522 lung): 1.18 µM
TGI (NCI-H522 lung): 6.01 µM
GI50 (NCI/ADR-RES ovarian): 0.566 µM
TGI (NCI/ADR-RES ovarian): 13.9 µM
GI50 (OVCAR-3 ovarian): 3.59 µM
TGI (OVCAR-3 ovarian): 18.1 µM
GI50 (OVCAR-4 ovarian): 4.26 µM
TGI (OVCAR-4 ovarian): 16.3 µM
GI50 (OVCAR-5 ovarian): 5.19 µM
TGI (OVCAR-5 ovarian): 18.4 µM
GI50 (OVCAR-8 ovarian): 3.24 µM
TGI (OVCAR-8 ovarian): 18 µM
GI50 (PC-3 prostate): 1.5 µM
TGI (PC-3 prostate): 12.6 µM
GI50 (RPMI-8226 leukemia): 2.74 µM
TGI (RPMI-8226 leukemia): 11.8 µM
GI50 (RXF 393 renal): 1.72 µM
TGI (RXF 393 renal): 4.83 µM
GI50 (SF-268 CNS): 7.49 µM
TGI (SF-268 CNS): 29.2 µM
GI50 (SF-295 CNS): 0.475 µM
TGI (SF-295 CNS): 1.96 µM
GI50 (SF-539 CNS): 1.75 µM
TGI (SF-539 CNS): 4.5 µM
GI50 (SK-MEL-2 melanoma): 5.76 µM
TGI (SK-MEL-2 melanoma): 22.7 µM
GI50 (SK-MEL-28 melanoma): 7.74 µM
TGI (SK-MEL-28 melanoma): 25 µM
GI50 (SK-MEL-5 melanoma): 4.86 µM
TGI (SK-MEL-5 melanoma): 17 µM
GI50 (SK-OV-3 ovarian): 5.3 µM
TGI (SK-OV-3 ovarian): 20.9 µM
GI50 (SN12C renal): 3.73 µM
TGI (SN12C renal): 18.1 µM
GI50 (SNB-19 CNS): 3.35 µM
TGI (SNB-19 CNS): 15.5 µM
GI50 (SNB-75 CNS): 0.366 µM
TGI (SNB-75 CNS): 4.02 µM
GI50 (SR leukemia): 0.821 µM
TGI (SR leukemia): 25 µM
GI50 (SW-620 colon): 1.45 µM
TGI (SW-620 colon): 16.4 µM
GI50 (T-47D breast): 3.13 µM
TGI (T-47D breast): 15.8 µM
GI50 (TK-10 renal): 9.77 µM
TGI (TK-10 renal): 24.2 µM
GI50 (U251 CNS): 3.77 µM
TGI (U251 CNS): 16.3 µM
GI50 (UACC-257 melanoma): 13.1 µM
TGI (UACC-257 melanoma): 38.2 µM
GI50 (UACC-62 melanoma): 1.04 µM
TGI (UACC-62 melanoma): 18.4 µM
GI50 (UO-31 renal): 3.29 µM
TGI (UO-31 renal): 16.1 µM
